Measured values published in article PMC9030254, “Target Hopping from Protein Kinases to PXR: Identification of Small-Molecule Protein Kinase Inhibitors as Selective Modulators of Pregnane X Receptor from TüKIC Library” (Cells, 2022).

How the values were obtained:
Assay in all cases: Kinase profiling
Type in all cases: biochemical
PKCeta = molecular target: T1, PKCeta (Homo sapiens, UniProt P24723)
T1 construct: purchased ProQinase (Freiburg, Germany)
Description: (§1) The analysis was performed by ProQinase (Freiburg, Germany).

CAMK2G = molecular target: T2, CAMK2G (Homo sapiens, UniProt Q13555)
T2 construct: purchased ProQinase (Freiburg, Germany)
T2 sequence (Q13555 whole entry): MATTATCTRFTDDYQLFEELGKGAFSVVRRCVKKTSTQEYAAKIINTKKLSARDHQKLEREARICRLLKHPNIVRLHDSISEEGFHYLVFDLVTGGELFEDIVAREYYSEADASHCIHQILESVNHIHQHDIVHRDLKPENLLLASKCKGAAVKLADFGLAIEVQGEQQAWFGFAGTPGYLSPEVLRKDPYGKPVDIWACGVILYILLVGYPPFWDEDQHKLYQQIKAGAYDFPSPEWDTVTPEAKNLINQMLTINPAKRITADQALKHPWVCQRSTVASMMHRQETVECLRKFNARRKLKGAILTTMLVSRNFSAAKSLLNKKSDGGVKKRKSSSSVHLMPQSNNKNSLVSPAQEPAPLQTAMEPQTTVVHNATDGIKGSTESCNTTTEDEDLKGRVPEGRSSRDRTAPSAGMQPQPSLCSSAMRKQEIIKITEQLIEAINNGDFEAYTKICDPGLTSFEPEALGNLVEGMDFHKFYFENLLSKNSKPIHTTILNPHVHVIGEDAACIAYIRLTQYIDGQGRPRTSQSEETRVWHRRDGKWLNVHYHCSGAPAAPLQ
Description: as §1

MEK5 = molecular target: T3, MEK5 (Homo sapiens, UniProt Q13163)
T3 construct: purchased ProQinase (Freiburg, Germany)
T3 sequence (Q13163 1-448): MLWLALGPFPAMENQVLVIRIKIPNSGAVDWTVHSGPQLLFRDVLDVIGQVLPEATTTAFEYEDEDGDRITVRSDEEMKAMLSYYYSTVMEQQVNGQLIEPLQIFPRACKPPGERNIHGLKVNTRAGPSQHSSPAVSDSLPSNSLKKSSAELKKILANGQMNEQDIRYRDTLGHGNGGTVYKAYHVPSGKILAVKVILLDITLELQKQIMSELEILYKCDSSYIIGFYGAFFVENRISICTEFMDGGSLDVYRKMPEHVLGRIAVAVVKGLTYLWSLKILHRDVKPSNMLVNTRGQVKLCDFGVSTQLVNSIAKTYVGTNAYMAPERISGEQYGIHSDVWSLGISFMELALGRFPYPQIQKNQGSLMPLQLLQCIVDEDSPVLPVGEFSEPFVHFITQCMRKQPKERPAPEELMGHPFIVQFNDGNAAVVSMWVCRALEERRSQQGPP
Description: as §1

CLK4 = molecular target: T4, CLK4 (Homo sapiens, UniProt Q9HAZ1)
T4 construct: purchased ProQinase (Freiburg, Germany)
T4 sequence (Q9HAZ1 whole entry): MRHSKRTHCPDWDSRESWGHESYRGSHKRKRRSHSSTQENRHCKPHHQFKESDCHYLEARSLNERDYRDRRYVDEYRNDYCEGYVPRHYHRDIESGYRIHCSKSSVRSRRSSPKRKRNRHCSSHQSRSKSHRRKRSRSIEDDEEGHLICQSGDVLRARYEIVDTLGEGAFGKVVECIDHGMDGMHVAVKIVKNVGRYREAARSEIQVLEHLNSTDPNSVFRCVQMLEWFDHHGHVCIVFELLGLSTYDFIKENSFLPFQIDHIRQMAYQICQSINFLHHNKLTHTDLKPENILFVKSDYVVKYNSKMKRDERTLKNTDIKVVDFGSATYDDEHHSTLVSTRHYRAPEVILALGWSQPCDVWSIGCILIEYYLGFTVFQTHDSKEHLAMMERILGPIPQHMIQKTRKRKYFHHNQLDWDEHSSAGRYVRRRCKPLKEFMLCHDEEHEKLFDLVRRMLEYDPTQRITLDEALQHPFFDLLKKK
Description: as §1

IRAK1 = molecular target: T5, IRAK1 (Homo sapiens, UniProt P51617)
T5 construct: purchased ProQinase (Freiburg, Germany)
T5 sequence (P51617 whole entry): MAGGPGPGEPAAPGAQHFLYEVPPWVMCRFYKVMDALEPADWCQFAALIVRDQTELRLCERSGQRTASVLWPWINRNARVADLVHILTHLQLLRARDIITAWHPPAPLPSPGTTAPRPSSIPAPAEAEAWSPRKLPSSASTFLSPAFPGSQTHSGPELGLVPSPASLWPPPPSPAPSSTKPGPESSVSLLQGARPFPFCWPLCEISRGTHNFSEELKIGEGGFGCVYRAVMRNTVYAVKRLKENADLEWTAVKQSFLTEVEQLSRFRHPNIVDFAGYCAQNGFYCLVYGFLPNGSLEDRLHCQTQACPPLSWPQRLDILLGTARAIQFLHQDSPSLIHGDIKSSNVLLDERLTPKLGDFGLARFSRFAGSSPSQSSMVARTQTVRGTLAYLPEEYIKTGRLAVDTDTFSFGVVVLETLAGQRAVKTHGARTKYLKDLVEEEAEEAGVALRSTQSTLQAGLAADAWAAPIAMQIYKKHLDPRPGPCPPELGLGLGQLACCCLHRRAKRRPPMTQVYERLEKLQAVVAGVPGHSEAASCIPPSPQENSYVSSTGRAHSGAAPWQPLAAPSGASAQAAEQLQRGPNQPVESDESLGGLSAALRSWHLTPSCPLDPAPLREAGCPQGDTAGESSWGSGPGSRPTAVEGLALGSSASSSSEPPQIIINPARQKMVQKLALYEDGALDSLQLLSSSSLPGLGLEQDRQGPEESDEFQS
Description: as §1

PRKG2 = molecular target: T6, PRKG2 (Homo sapiens, UniProt Q13237)
T6 construct: purchased ProQinase (Freiburg, Germany)
T6 sequence (Q13237 1-762): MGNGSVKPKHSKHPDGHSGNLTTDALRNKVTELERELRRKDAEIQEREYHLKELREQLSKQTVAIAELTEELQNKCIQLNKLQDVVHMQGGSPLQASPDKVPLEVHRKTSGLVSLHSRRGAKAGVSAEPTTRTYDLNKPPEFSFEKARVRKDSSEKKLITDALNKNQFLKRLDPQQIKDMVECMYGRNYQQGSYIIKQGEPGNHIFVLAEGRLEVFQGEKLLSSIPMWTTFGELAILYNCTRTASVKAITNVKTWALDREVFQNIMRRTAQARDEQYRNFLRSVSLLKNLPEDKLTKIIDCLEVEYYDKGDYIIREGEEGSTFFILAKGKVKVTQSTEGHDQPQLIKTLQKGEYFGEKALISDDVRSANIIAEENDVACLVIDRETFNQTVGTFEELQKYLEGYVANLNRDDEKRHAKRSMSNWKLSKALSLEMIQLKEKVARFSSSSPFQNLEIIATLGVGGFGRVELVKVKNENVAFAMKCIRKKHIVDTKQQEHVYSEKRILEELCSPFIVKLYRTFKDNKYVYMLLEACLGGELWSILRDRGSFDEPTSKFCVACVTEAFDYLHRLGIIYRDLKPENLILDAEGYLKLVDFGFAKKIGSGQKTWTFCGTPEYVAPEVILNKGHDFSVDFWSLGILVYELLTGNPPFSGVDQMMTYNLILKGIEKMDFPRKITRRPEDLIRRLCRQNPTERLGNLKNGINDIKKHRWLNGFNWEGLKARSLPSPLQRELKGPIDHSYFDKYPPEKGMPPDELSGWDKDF
Description: as §1

ROCK2 = molecular target: T7, ROCK2 (Homo sapiens, UniProt O75116)
T7 construct: purchased ProQinase (Freiburg, Germany)
T7 sequence (O75116 whole entry): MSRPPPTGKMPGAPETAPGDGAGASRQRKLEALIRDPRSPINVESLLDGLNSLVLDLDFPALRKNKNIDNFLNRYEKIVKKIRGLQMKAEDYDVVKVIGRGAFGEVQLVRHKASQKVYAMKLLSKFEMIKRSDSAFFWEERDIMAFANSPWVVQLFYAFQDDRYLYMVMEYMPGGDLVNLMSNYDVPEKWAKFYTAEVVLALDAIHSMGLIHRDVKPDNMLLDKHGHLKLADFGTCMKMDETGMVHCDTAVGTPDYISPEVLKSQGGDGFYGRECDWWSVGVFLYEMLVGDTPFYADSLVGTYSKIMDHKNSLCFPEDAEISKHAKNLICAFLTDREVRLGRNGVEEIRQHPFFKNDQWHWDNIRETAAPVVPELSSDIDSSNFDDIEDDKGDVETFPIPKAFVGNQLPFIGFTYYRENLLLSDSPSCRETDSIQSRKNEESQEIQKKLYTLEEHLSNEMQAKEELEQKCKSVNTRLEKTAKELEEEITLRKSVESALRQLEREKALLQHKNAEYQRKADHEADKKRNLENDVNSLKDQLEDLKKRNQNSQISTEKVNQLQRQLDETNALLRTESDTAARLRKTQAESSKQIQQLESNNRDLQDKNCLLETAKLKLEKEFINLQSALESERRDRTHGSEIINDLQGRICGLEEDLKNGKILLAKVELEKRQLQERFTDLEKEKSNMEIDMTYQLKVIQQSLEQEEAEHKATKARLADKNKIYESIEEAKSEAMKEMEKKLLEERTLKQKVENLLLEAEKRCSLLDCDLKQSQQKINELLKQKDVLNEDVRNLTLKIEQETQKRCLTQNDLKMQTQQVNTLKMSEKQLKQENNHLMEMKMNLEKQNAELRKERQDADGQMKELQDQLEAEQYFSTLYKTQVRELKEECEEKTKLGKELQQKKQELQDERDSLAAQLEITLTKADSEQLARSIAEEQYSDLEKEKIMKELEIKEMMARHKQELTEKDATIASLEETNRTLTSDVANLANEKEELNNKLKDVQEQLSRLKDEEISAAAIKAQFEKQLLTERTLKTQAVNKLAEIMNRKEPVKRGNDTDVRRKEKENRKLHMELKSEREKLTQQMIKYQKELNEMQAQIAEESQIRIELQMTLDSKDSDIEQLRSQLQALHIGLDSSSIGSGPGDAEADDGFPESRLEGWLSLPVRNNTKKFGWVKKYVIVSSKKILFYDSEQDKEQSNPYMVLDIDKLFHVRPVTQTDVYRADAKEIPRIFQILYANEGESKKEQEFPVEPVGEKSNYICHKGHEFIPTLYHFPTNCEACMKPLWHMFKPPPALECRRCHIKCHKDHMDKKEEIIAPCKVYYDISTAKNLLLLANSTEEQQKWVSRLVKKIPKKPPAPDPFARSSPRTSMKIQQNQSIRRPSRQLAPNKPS
Description: as §1

LTK = molecular target: T8, LTK (Homo sapiens, UniProt P29376)
T8 construct: purchased ProQinase (Freiburg, Germany)
T8 sequence (P29376 17-864): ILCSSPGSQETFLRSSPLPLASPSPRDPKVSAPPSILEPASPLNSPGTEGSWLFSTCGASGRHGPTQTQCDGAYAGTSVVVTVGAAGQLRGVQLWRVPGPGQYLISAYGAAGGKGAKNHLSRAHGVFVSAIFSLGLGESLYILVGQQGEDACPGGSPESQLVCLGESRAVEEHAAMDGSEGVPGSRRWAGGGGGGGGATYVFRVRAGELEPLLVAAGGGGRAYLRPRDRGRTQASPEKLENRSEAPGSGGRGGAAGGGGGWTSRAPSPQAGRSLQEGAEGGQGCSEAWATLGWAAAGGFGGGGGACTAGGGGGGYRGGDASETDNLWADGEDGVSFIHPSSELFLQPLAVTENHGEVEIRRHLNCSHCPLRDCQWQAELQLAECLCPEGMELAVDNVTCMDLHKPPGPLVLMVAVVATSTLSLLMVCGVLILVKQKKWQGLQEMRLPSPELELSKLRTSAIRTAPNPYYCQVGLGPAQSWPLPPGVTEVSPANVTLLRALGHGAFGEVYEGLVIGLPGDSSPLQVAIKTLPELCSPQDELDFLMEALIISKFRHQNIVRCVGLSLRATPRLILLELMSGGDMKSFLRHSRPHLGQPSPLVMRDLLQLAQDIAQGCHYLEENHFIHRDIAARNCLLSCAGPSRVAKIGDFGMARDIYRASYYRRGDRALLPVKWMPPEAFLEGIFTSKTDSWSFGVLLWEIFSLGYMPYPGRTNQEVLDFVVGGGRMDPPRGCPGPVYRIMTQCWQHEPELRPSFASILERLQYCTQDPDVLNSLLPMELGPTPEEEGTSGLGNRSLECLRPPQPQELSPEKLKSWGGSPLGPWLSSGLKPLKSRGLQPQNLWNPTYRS
Description: as §1

ROS = molecular target: T9, ROS (Homo sapiens, UniProt P08922)
T9 construct: purchased ProQinase (Freiburg, Germany)
Description: as §1

BMPR1B = molecular target: T10, BMPR1B (Homo sapiens, UniProt O00238)
T10 construct: purchased ProQinase (Freiburg, Germany)
T10 sequence (O00238 14-502): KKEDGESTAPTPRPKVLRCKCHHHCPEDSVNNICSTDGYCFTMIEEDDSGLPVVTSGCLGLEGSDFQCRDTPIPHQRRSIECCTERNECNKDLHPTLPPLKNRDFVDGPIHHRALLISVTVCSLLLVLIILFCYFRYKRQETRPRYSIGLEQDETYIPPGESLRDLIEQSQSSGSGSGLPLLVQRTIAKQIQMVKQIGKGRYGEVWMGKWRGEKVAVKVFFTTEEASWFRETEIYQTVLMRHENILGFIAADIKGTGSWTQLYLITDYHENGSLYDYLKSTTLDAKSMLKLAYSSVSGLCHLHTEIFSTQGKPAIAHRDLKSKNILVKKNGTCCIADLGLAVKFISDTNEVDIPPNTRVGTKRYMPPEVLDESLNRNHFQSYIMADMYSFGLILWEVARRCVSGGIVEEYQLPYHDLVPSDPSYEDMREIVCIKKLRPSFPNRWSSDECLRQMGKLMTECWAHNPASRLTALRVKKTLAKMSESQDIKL
Description: as §1

CK1delta = molecular target: T11, CK1delta (Homo sapiens, UniProt P48730)
T11 construct: purchased ProQinase (Freiburg, Germany)
Description: as §1

TYRO3 = molecular target: T12, TYRO3 (Homo sapiens, UniProt Q06418)
T12 construct: purchased ProQinase (Freiburg, Germany)
T12 sequence (Q06418 41-890): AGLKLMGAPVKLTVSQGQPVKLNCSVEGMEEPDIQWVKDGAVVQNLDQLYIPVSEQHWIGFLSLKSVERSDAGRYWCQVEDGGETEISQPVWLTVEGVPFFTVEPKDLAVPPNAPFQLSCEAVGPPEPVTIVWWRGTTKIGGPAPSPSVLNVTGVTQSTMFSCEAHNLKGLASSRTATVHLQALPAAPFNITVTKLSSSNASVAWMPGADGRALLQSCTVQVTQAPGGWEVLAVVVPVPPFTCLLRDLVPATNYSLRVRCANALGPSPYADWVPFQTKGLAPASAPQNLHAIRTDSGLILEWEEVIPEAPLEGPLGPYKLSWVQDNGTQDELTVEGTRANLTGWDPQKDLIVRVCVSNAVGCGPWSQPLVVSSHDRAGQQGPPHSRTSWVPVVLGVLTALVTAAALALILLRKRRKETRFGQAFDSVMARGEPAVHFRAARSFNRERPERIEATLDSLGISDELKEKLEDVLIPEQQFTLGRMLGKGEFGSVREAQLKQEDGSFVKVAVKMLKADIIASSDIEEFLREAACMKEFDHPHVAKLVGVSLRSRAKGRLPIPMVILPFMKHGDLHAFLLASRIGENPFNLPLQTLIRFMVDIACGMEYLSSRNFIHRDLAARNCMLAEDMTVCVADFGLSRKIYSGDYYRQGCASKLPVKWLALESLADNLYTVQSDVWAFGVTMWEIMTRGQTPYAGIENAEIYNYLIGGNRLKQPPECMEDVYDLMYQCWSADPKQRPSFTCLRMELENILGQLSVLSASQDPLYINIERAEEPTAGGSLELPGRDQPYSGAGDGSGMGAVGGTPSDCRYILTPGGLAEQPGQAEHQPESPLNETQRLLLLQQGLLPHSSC
Description: as §1

JNK1 = molecular target: T13, JNK1 (Homo sapiens, UniProt P45983)
T13 construct: purchased ProQinase (Freiburg, Germany)
T13 sequence (P45983 whole entry): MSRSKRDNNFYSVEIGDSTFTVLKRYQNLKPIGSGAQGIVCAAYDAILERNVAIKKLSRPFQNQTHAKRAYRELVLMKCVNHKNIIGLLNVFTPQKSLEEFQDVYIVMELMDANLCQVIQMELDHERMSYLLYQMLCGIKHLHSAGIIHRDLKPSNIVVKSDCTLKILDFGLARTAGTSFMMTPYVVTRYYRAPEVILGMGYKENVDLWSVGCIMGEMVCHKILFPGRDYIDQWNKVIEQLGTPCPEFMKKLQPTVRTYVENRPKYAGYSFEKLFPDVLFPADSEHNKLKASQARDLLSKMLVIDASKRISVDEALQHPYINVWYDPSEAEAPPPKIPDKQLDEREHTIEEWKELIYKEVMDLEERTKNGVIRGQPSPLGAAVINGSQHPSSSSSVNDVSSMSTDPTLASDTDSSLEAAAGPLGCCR
Description: as §1

SMILES | Residual activity (PKCeta; 1.0E-05 M) | Residual activity (PKCeta; 1.0E-06 M) | Residual activity (CAMK2G; 1.0E-05 M) | Residual activity (CAMK2G; 1.0E-06 M) | Residual activity (MEK5; 1.0E-05 M) | Residual activity (MEK5; 1.0E-06 M) | Residual activity (CLK4; 1.0E-05 M) | Residual activity (CLK4; 1.0E-06 M) | Residual activity (IRAK1; 1.0E-05 M) | Residual activity (IRAK1; 1.0E-06 M) | Residual activity (PRKG2; 1.0E-05 M) | Residual activity (PRKG2; 1.0E-06 M) | Residual activity (ROCK2; 1.0E-05 M) | Residual activity (ROCK2; 1.0E-06 M) | Residual activity (LTK; 1.0E-05 M) | Residual activity (LTK; 1.0E-06 M) | Residual activity (ROS; 1.0E-05 M) | Residual activity (ROS; 1.0E-06 M) | Residual activity (BMPR1B; 1.0E-05 M) | Residual activity (BMPR1B; 1.0E-06 M) | further results
O=C(Cc1ccccc1)Nc1ccc(F)c(Nc2ccc3c(c2)CCCCC3=O)c1 [Compound 100] | 115 % of control | 116 % of control | 107 % of control | 105 % of control | 114 % of control | 118 % of control | 98 % of control | 103 % of control | 106 % of control | 107 % of control | 83 % of control | 94 % of control | 102 % of control | 101 % of control | 50 % of control | 115 % of control | 91 % of control | 99 % of control | 121 % of control | 102 % of control | Residual activity (CK1delta; 1.0E-05 M): 106 % of control; Residual activity (CK1delta; 1.0E-06 M): 110 % of control; Residual activity (TYRO3; 1.0E-05 M): 77 % of control; Residual activity (TYRO3; 1.0E-06 M): 96 % of control; Residual activity (JNK1; 1.0E-05 M): 76 % of control; Residual activity (JNK1; 1.0E-06 M): 100 % of control
O=C(Nc1ccc(F)c(Nc2ccc3c(c2)CCCCC3=O)c1)c1cccc(F)c1 [Compound 109] | 110 % of control | 116 % of control | 111 % of control | 109 % of control | 94 % of control | 104 % of control | 108 % of control | 105 % of control | 104 % of control | 100 % of control | 84 % of control | 88 % of control | 98 % of control | 103 % of control | 77 % of control | 95 % of control | 85 % of control | 97 % of control | 128 % of control | 101 % of control | inhibition at 1 µM (CK1delta; 1 µM, read-out: inhibition of CK1-δ): ≥ 50%; inhibition at 10 µM (CK1delta; 10 µM, read-out: inhibition of CK1-δ): ≥ 50%; Residual activity (CK1delta; 1.0E-05 M): 15 % of control; Residual activity (CK1delta; 1.0E-06 M): 23 % of control; Residual activity (TYRO3; 1.0E-05 M): 92 % of control; Residual activity (TYRO3; 1.0E-06 M): 104 % of control; Residual activity (JNK1; 1.0E-05 M): 81 % of control; Residual activity (JNK1; 1.0E-06 M): 90 % of control
